Key:
Assay in all cases: SelectScreen kinase profiling, SSBK LanthaScreen Binding SP Technology
[1] = biological target: kinase named in conditions (Homo sapiens, UniProt P10721, N822K); details: KIT N822K, 10 μM
[2] = biological target: kinase named in conditions (Homo sapiens, UniProt P42680); details: TEC, 10 μM
[3] = biological target: kinase named in conditions (Homo sapiens, UniProt P45984); details: MAPK9 (JNK2), 10 μM
[4] = biological target: kinase named in conditions (Homo sapiens, UniProt Q8NFD2); details: ANKK1, 10 μM
[5] = biological target: kinase named in conditions (Homo sapiens, UniProt P10721, V654A); details: KIT V654A, 10 μM
[6] = biological target: kinase named in conditions (Homo sapiens, UniProt P07949, G691S); details: RET G691S, 10 μM
[7] = biological target: kinase named in conditions (Homo sapiens, UniProt P06241); details: FYN A, 10 μM
[8] = biological target: kinase named in conditions (Homo sapiens, UniProt Q15746); details: MYLK (MLCK), 10 μM
[9] = biological target: kinase named in conditions (Homo sapiens, UniProt Q9H2G2); details: SLK, 10 μM
Chain of kinase named in conditions (Homo sapiens, UniProt Q9H2G2) (Q9H2G2 whole entry): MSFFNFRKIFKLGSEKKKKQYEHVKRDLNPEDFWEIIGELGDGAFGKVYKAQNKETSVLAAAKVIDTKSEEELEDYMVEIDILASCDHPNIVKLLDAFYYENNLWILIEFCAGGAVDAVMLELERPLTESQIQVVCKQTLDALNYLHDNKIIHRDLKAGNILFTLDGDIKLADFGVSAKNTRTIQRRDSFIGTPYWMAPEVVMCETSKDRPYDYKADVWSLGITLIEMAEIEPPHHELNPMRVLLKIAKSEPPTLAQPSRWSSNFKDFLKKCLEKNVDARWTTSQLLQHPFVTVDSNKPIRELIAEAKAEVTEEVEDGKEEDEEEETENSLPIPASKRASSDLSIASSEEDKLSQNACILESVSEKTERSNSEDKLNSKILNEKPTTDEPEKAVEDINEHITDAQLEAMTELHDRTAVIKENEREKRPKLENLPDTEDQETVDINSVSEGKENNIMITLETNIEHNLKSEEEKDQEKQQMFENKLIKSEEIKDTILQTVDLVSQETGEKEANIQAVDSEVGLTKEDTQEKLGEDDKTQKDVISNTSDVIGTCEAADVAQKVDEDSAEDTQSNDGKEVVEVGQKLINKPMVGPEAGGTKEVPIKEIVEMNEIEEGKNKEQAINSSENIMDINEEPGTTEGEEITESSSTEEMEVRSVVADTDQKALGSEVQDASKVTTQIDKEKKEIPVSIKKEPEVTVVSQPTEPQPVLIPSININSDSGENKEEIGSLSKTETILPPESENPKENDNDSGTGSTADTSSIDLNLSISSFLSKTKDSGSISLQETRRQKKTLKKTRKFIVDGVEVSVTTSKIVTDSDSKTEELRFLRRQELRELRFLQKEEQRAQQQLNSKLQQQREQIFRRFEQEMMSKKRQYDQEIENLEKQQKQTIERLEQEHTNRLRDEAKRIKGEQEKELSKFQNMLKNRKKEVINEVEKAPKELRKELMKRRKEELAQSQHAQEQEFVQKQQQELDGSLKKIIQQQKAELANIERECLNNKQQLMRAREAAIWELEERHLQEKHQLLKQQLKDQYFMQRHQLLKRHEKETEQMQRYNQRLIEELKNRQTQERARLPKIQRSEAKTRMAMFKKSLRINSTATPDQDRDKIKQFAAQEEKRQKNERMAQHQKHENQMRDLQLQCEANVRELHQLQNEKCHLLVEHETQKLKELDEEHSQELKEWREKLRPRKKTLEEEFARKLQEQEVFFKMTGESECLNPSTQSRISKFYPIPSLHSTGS

[10] = biological target: kinase named in conditions (Homo sapiens, UniProt Q8WXR4); details: MYO3B (MYO3 beta), 10 μM
Chain of kinase named in conditions (Homo sapiens, UniProt Q8WXR4) (Q8WXR4 whole entry): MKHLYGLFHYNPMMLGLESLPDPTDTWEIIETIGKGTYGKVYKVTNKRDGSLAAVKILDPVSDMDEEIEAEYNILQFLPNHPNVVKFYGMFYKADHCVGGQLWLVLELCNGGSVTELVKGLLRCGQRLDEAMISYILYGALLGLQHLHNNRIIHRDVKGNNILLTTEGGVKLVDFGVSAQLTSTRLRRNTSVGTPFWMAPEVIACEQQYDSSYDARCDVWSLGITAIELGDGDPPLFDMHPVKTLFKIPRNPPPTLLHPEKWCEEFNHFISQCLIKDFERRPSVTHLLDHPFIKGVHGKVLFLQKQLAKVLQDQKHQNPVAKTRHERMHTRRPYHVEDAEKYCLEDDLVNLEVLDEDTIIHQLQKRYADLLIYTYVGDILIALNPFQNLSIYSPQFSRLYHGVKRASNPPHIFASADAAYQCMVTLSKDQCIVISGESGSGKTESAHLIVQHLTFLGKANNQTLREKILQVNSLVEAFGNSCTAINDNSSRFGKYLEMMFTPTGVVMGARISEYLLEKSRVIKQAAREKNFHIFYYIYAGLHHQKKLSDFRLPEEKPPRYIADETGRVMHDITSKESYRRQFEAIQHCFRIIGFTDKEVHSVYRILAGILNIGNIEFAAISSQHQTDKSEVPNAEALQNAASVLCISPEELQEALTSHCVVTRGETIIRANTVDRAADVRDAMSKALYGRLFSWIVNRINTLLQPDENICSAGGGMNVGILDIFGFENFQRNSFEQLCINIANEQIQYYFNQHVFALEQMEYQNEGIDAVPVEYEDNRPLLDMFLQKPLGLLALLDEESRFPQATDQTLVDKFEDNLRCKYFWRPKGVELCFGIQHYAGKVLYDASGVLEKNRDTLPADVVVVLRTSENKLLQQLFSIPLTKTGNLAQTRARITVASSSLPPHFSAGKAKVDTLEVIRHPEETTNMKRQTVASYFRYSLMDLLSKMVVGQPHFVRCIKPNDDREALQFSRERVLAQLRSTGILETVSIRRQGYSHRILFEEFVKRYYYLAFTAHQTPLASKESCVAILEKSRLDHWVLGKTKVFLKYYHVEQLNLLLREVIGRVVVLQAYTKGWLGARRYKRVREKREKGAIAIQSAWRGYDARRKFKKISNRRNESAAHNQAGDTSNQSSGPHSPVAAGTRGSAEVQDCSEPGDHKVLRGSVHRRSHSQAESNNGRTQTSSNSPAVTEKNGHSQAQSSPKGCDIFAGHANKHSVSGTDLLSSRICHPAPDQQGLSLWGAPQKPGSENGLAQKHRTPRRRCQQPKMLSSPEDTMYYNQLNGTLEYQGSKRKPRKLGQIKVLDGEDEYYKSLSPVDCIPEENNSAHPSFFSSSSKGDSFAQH

[11] = biological target: kinase named in conditions (Homo sapiens, UniProt P07949, M918T); details: RET M918T, 10 μM
[12] = biological target: kinase named in conditions (Homo sapiens, UniProt P10721, T670E); details: KIT T670E, 10 μM
[13] = biological target: kinase named in conditions (Homo sapiens, UniProt Q9NRM7); details: LATS2, 10 μM
[14] = biological target: kinase named in conditions (Homo sapiens, UniProt Q9Y572); details: RIPK3, 10 μM
[15] = biological target: kinase named in conditions (Homo sapiens, UniProt P00519, Q252H); details: ABL1 Q252H, 10 μM
[16] = biological target: kinase named in conditions (Homo sapiens, UniProt O75716); details: STK16 (PKL12), 10 μM
[17] = biological target: kinase named in conditions (Homo sapiens, UniProt Q9H2K8); details: TAOK3 (JIK), 10 μM
[18] = biological target: kinase named in conditions (Homo sapiens, UniProt Q99759); details: MAP3K3 (MEKK3), 10 μM
[19] = biological target: kinase named in conditions (Homo sapiens, UniProt Q8IWQ3); details: BRSK2, 10 μM
[20] = biological target: kinase named in conditions (Homo sapiens, UniProt Q9Y2U5); details: MAP3K2 (MEKK2), 10 μM
[21] = biological target: kinase named in conditions (Homo sapiens, UniProt Q8NEV4); details: MYO3A (MYO3 alpha), 10 μM
[22] = biological target: kinase named in conditions (Homo sapiens, UniProt P52564); details: MAP2K6 (MKK6), 10 μM
[23] = biological target: kinase named in conditions (Homo sapiens, UniProt Q86UX6); details: STK32C (YANK3), 10 μM
[24] = biological target: kinase named in conditions (Homo sapiens, UniProt Q8IVH8); details: MAP4K3 (GLK), 10 μM
Chain of kinase named in conditions (Homo sapiens, UniProt Q8IVH8) (Q8IVH8 whole entry): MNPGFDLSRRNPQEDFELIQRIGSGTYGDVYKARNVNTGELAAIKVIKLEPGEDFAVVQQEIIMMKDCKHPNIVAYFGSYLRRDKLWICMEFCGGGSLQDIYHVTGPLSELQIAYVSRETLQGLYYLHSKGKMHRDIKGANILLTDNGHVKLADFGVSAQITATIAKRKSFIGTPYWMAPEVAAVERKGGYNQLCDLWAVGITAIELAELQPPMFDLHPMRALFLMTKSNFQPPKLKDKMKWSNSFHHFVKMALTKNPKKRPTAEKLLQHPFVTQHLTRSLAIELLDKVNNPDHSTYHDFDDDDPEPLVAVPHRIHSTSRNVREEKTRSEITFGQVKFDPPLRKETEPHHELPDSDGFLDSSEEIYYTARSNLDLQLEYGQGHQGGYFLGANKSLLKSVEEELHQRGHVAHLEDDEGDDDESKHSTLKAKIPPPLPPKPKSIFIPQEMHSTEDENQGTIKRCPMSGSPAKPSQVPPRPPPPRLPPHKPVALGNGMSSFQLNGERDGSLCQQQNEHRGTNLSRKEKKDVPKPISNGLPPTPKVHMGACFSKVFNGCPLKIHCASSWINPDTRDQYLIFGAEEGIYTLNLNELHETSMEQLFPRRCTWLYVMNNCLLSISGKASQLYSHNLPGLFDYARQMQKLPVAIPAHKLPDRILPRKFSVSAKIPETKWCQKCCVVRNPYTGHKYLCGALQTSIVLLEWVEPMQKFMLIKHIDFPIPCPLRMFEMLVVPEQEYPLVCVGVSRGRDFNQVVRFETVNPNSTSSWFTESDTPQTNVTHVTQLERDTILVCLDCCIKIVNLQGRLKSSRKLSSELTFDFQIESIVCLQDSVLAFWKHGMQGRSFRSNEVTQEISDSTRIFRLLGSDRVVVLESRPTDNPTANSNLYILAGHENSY

[25] = biological target: kinase named in conditions (Homo sapiens, UniProt Q9UM73, L1196M); details: ALK L1196M, 10 μM
[26] = biological target: kinase named in conditions (Homo sapiens, UniProt P49336); details: CDK8/cyclin C, 10 μM
[27] = biological target: kinase named in conditions (Homo sapiens, UniProt Q9Y2H1); details: STK38L (NDR2), 10 μM
Chain of kinase named in conditions (Homo sapiens, UniProt Q9Y2H1) (Q9Y2H1 whole entry): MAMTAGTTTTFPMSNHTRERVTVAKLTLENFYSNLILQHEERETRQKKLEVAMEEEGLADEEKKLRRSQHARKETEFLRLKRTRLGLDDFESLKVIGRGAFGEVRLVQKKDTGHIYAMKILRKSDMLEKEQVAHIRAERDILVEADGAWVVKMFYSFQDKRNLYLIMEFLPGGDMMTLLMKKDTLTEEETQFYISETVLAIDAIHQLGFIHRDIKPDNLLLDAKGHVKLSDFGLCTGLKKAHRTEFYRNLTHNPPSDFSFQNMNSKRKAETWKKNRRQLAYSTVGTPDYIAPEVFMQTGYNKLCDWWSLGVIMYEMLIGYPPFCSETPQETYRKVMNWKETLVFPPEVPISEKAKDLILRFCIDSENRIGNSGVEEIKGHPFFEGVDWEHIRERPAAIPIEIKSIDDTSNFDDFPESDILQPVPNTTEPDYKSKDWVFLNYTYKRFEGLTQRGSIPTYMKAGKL

[28] = biological target: kinase named in conditions (Homo sapiens, UniProt O00238); details: BMPR1B (ALK6), 10 μM
[29] = biological target: kinase named in conditions (Homo sapiens, UniProt Q9BYP7); details: WNK3, 10 μM
[30] = biological target: kinase named in conditions (Homo sapiens, UniProt Q99640); details: PKMYT1, 10 μM
[31] = biological target: kinase named in conditions (Homo sapiens, UniProt Q99683); details: MAP3K5 (ASK1), 10 μM
[32] = biological target: kinase named in conditions (Homo sapiens, UniProt Q13873); details: BMPR2, 10 μM
[33] = biological target: kinase named in conditions (Homo sapiens, UniProt O00444); details: PLK4, 10 μM
Chain of kinase named in conditions (Homo sapiens, UniProt O00444) (O00444 whole entry): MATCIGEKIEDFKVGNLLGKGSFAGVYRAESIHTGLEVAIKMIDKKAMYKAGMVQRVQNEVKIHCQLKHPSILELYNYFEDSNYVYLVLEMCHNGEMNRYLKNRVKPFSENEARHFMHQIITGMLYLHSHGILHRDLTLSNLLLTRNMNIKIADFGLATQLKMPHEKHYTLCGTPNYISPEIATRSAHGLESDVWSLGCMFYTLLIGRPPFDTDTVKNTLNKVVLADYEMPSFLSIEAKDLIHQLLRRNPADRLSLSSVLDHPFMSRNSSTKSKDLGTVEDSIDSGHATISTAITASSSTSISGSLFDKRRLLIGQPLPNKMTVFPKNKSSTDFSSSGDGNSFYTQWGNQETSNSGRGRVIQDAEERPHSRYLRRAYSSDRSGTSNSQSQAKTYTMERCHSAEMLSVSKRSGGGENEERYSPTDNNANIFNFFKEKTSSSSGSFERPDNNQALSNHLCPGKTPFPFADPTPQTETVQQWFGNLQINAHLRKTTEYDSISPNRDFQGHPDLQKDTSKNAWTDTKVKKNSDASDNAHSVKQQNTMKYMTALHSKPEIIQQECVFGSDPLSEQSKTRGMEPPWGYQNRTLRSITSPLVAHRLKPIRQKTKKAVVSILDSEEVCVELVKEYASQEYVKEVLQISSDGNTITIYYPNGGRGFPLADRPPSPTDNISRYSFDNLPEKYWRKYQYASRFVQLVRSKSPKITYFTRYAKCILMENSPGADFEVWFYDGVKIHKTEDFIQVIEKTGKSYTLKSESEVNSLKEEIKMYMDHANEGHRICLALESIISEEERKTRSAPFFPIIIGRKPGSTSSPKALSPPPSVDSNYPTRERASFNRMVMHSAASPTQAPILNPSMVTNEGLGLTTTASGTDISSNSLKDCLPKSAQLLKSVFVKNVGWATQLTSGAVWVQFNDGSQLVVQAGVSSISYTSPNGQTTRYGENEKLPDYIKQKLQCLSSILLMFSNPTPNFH

[34] = biological target: kinase named in conditions (Homo sapiens, UniProt O00311); details: CDC7/DBF4, 10 μM
[35] = biological target: kinase named in conditions (Homo sapiens, UniProt P57059); details: SIK1, 10 μM

FC(F)(F)c1c(Cl)ccc(-n2ccnn2)c1Cl [8l, 1-(2,4-Dichloro-3-(trifluoromethyl)phenyl)-1H-1,2,3-triazole]
inhibition at 10 µM [1]: -3% | inhibition at 10 µM [2]: 0% | inhibition at 10 µM [3]: -5% | inhibition at 10 µM [4]: -4% | inhibition at 10 µM [5]: 14% | inhibition at 10 µM [6]: -8% | inhibition at 10 µM [7]: -8% | inhibition at 10 µM [8]: 3% | inhibition at 10 µM [9]: 4% | inhibition at 10 µM [10]: 4% | inhibition at 10 µM [11]: 9% | inhibition at 10 µM [12]: 1% | inhibition at 10 µM [13]: 7% | inhibition at 10 µM [14]: 10% | inhibition at 10 µM [15]: 10% | inhibition at 10 µM [16]: 17% | inhibition at 10 µM [17]: -5% | inhibition at 10 µM [18]: -14% | inhibition at 10 µM [19]: 4% | inhibition at 10 µM [20]: 11% | inhibition at 10 µM [21]: -6% | inhibition at 10 µM [22]: 2% | inhibition at 10 µM [23]: 8% | inhibition at 10 µM [24]: 6% | inhibition at 10 µM [25]: -3% | inhibition at 10 µM [26]: 18% | inhibition at 10 µM [27]: 15% | inhibition at 10 µM [28]: 0% | inhibition at 10 µM [29]: -10% | inhibition at 10 µM [30]: 0% | inhibition at 10 µM [31]: 17% | inhibition at 10 µM [32]: 13% | inhibition at 10 µM [33]: -1% | inhibition at 10 µM [34]: -15% | inhibition at 10 µM [35]: -3%

From article PMC9150124, “Design of a Potent, Selective, and Brain-Penetrant Inhibitor of Wnt-Deactivating Enzyme Notum by Optimization of a Crystallographic Fragment Hit” (Journal of Medicinal Chemistry, 2022)
